Series [1] relates to U20S-DR-GFP cells. The series is described as follows: ISceI-based DR-GFP reporter assay of homologous recombination. The series is classed as cell-based. The note with it: cells stably expressing DR-GFP reporter, FACS. How it is done:
Bar graphs next to images show average number of 53BP1 foci/cell. The p-values were determined by two-way ANOVA followed by Sidak's multiple-comparisons test. Error bars represent mean±SEM. Because miR-584-5p induces apoptosis, it was reasoned that DNA strand breaks induced by miR-584-5p and eIF4E3/HDAC1 silencing may not be properly repaired. To confirm those findings, a functional assay was performed to monitor homologous recombination (HR) because HR-dependent events repair IR-induced double-strand breaks in G2 phase. The ISceI-based DR-GFP reporter assay, which measures the frequency of double-strand break repair by HR (Gunn, A., Bennardo, N., Cheng, A. & Stark, J. M. Journal of Biological Chemistry 286, 42470-42482, (2011); Pierce, A. J., Johnson, R. D., Thompson, L. H. & Jasin, M. Genes & Development 13, 2633-2638, (1999); and Stark, J. M., Pierce, A. J., Oh, J., Pastink, A. & Jasin, M. Molecular and Cellular Biology 24, 9305-9316, (2004)), was used. […] U20S-DR-GFP cells were transfected with miR-NC or miR-584-5p or scramble-siRNA or eIF4E3/HDAC1-siRNAs followed by transfection with pCAGGS vector with ISceI/GFP. I-SceI expression leads to double-strand breaks that HR repairs by using the wild-type GFP, resulting in GFP^+ cells. […] The p-values were calculated using either Student t-tests (mimic) or one-way ANOVA followed by Dunnett's multiple-comparisons test (siRNAs). […]

Series [2] concerns DAOY cells stably expressing green fluorescent protein (GFP)-luciferase. The series is described as follows: Orthotopic intracranial tumor xenograft, bioluminescence imaging and survival.
Protocol: For in vivo studies, orthotopic intracranial transplantation of the scrambled and miR-584-5p-transfected DAOY cells stably expressing green fluorescent protein (GFP)-luciferase was performed. […] The p-values were determined by the sum-of-squares F test. Error bars represent mean±SEM. […] The p-value was determined using the log-rank (Mantel-Cox) test. Error bars represent SE. ****, p<0.0001; ***, p<0.001.
Animals and intracranial xenografts. Athymic nude mice (nu/nu) were obtained from Harlan, USA. Three- to 5-week-old athymic nude mice (nu/nu) were anesthetized using isoflurane by inhalation. Using a Hamilton syringe, 1 million cells were stereotactically implanted into the right corpus striatum at a depth of 3.5 mm at a point 2.5 mm lateral to the midline and 1.5 mm anterior to the bregma. After the surgery, the animal recovered on a heating pad in a normal mouse cage to maintain its body temperature at 37°-37.2° C. An ocular lubricating ointment (AKORN) was administered until spontaneous blinking resumed. Starting from week 2, control group animals received dimethyl sulfoxide, whereas VCR group animals received 1 mg of VCR (Sigma-Aldrich) per kg of body weight intraperitoneally once per week for 6 weeks. The Xenogen Small-Animal Imaging System was used for subcellular imaging in live mice once per week. Animals were killed, and brains were fixed and analyzed.
Series [3] deals with c-Myc. The series is described as follows: qPCR and Western blot of c-Myc. The note with it: c-Myc-amplified MB cells. Type of series: cell-based. Here is the method:
Immunofluorescence and Western blot analysis Immunofluorescence analyses was carried out on cells fixed in 4% paraformaldehyde (Imam, J. S. et al. PLoS One 7, e52397, (2012)). […]
Because c-Myc supports cancer stem cell growth, promotes radioresistance (Gravina, G. L. et al. Radiat Res 185, 411-422, (2016)), and has elevated levels in VCR-resistant cancer cells (He, Y., Zhang, J., Zhang, J. & Yuan, Y. Chin Med J (Engl) 113, 848-851 (2000)), it was tested whether miR-584-5p and its target genes may regulate c-Myc-amplified MB growth and therapy sensitization by targeting c-Myc levels/functions. […] In FIG. 14D, the p-values were calculated using standard Student t-tests. […] To test that possibility, it was assessed whether miR-584-5p target genes may regulate c-Myc levels in MB. […] Cell viability was assessed using alamarBlue. The p-value was calculated using one-way ANOVA followed by Sidak's multiple-comparisons test. […]
A general note: Real-time PCR tracks product formation cycle by cycle.

In the case of “miR-584-5p: microRNA mimic; nucleotide sequence UUAUGGUUUGCCUGGGACUGAG (SEQ ID NO: 1); purchased from Thermofisher (chemistry not given here)”, the “GFP-positive cells (homologous recombination events)” value in series [1] is “significantly fewer GFP-positive cells”. For the same substance, in series [2] (transfected DAOY cells, in comparison with scrambled-transfectant tumor), the MB tumor growth result is listed as “dramatically reduced MB growth”. In addition, the survival of mice result in series [2] (vs scrambled-transfectant group, Kaplan-Meier) is reported as “lived significantly longer”. Further, the c-Myc levels result in series [3] is recorded as “significantly reduced expression of c-Myc”.
